Among the data in patent US5869501A, “Amidinonaphthyl derivative or salt thereof” (Yamanouchi Pharmaceutical Co. Ltd, priority 1994, dated 1999) are IC (2-fold clotting time) and IC50 values, retold here.

Where a name gives a salt, the structure may show the parent alone. Read-outs that look alike come from different tables or passages of the source. Where only a bound is given, the exact number is not on record here.

What all share (assay type): biochemical
The target in one assay is T1, bovine thrombin (Bos taurus, UniProt P00735).
T1 construct: clotting of human fibrinogen
As to the kind of experiment: Measurement of coagulation time by bovine thrombin (human fibrinogen). The following applies: pH=7.40, read-out: CT2 (dose which extends the blood coagulation time twice), bovine thrombin. Here is the method:
2) Test on the measurement of coagulation time by bovine thrombin.
Human fibrinogen (freeze-dried preparation, manufactured by Sigma) is dissolved in 0.05M Tris-HCl buffer (pH=7.40) to prepare a 6 mg/ml solution. Bovine thrombin (500 IU/vial, manufactured by Mochida Pharmaceutical) is dissolved in physiological saline to prepare thrombin solutions of various concentrations. A 100 μl portion of the aforementioned fibrinogen solution was mixed with 100 μl of physiological saline, the mixture was incubated at 37° C. for 3 minutes. Then, 100 μl of the aforementioned thrombin solution was added to measure the coagulation time and to determine concentration of thrombin which causes coagulation after about 20 seconds. Next, 100 μl of each drug which has been diluted with physiological saline was added to 100 μl of the aforementioned fibrinogen solution to measure the coagulation time. KC4A manufactured by Amelung was used for the measurement of the coagulation time. A dose which extends the blood coagulation time twice (to be referred to as CT2 hereinafter) was calculated based on the blood coagulation time when 100 μl of physiological saline was added.

For assay [1], the target named is T2, human activated blood coagulation factor X (Homo sapiens, UniProt P00742).
T2 construct: purchased Cosmo Bio
As to the kind of experiment: Measurement of blood coagulation time by human activated blood coagulation factor X (human plasma). The following applies: read-out: CT2 (dose which extends the blood coagulation time twice), human activated blood coagulation factor X. As to the method:
1) Test on the measurement of blood coagulation time by human activated blood coagulation factor X.
Human activated blood coagulation factor X (manufactured by Cosmo Bio) is dissolved in 0.05M Tris-HCl buffer (pH=7.40) to prepare a 0.05 unit/ml solution. A blood sample collected using 1/10 volume of 3.8% sodium citrate was centrifuged at 3,000 rpm for 10 minutes. Then, 90 μl portion of the thus separated human plasma was mixed with 10 μl of each drug which has been diluted by dissolving in physiological saline and 50 μl of the aforementioned activated blood coagulation factor X solution, and the mixture was incubated at 37° C. for 3 minutes. Then, 100 μl of 20 mM CaCl2 solution was added to measure the blood coagulation time. KC4A manufactured by Amelung was used for the measurement of blood coagulation time. A dose which extends the blood coagulation time twice (to be referred to as CT2 hereinafter) was calculated based on the blood coagulation time when 10 μl of physiological saline was added instead of the drug.

For assay [2], the target named is T2, human activated blood coagulation factor X. As to the kind of experiment: Measurement of enzyme inhibition by a synthetic substrate method (S-2222). Conditions: 37° C., 15 minutes, absorbance at 405 nm. As to the method:
3) Test on the measurement of enzyme inhibition by a synthetic substrate method.
Human activated blood coagulation factor X (manufactured by Cosmo Bio) was dissolved in 0.02M Tris-HCl buffer (pH=7.40) containing 0.15M sodium chloride to prepare a 6 units/ml solution. A synthetic substrate S-2222 (manufactured by Daiichi Kagaku Yakuhin) was dissolved in purified water to prepare a 0.75 mg/ml solution. A 25 μl portion of each drug which has been prepared by dissolving the drug in physiological saline was mixed with 170 μl of 0.05M Tris-HCl buffer (pH=8.40) and 50 μl of the S-2222 solution. Then, 10 μl of the human activated blood coagulation factor X solution was added and the mixture was incubated at 37° C. for 15 minutes. The reaction was stopped by adding 50 μl of 60% acetic acid and then the absorbance at 405 nm was measured to calculate IC50 value. Model 3550 manufactured by Bio-Rad was used for the measurement. A reaction mixture prepared by adding physiological saline instead of the drug and adding 60% acetic acid prior to the addition of the human activated blood coagulation factor X solution was used as a control. Concentration of the drug when 50% of the reaction was inhibited (to be referred to as IC50 hereinafter) was calculated based on the control.

[3] abbreviates: human plasma, 37° C., 3 minutes incubation.

T2 sequence (P00742 235-488 limits assumed): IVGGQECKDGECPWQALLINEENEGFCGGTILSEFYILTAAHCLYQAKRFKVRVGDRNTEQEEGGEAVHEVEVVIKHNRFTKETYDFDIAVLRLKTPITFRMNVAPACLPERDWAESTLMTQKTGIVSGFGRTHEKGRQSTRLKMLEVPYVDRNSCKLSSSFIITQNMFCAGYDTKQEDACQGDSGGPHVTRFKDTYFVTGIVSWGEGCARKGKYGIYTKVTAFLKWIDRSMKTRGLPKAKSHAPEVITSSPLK
T2 sequence (P00742 41-179 partner limits assumed): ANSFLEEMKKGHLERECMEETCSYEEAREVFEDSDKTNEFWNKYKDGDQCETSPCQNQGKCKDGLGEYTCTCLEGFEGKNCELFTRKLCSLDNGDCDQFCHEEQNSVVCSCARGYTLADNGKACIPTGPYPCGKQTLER

As for `CCOC(=O)C(=O)N(Cc1ccc2ccc(C(=N)N)cc2c1)c1ccc(OC2CCN(C(C)=N)CC2)cc1` [Example 23, ethyl N-[4-[(1-acetoimidoyl-4-piperidyl)oxy]phenyl]-N-[(7-amidino-2-naphthyl)methyl]oxamate dihydrochloride], the IC (2-fold clotting time) is more than 100 µM on bovine thrombin and 0.11 µM in assay [1] (setting [3]).

As for `CCS(=O)(=O)N(Cc1ccc2ccc(C(=N)N)cc2c1)c1ccc(OC2CCN(C(C)=N)CC2)cc1` [Example 28, N-[4-[(1-Acetoimidoyl-4-piperidyl)oxy]phenyl]-N-[(7-amidino-2-naphthyl)methyl]ethanesulfonamide dihydrochloride], the IC (2-fold clotting time) is more than 100 µM on bovine thrombin and 0.05 µM in assay [1] (setting [3]).

Take `CC(=N)N1CCC(Oc2ccc(NCc3ccc4ccc(C(=N)N)cc4c3)cc2)CC1` [Example 31, 7-[[4-[(1-Acetoimidoyl-4-piperidyl)oxy]anilino]methyl]-2-naphthamidine trihydrochloride]: the IC (2-fold clotting time) at bovine thrombin is more than 100 µM; in assay [1] (setting [3]) it was 0.09 µM.

Regarding `COc1ccccc1C(=O)N(Cc1ccc2ccc(C(=N)N)cc2c1)c1ccc(OC2CCN(C(C)=N)CC2)cc1` [Example 33, N-[4-[(1-Acetoimidoyl-4-piperidyl)oxy]phenyl]-N-[(7-amidino-2-naphthyl)methyl]-2-methoxybenzamide dihydrochloride], the IC (2-fold clotting time) on bovine thrombin was more than 100 µM; in assay [1] (setting [3]) it was 0.14 µM.

Regarding `CC(=N)N1CCC(Oc2ccc(N(Cc3ccc4ccc(C(=N)N)cc4c3)C(=O)c3c(F)cccc3F)cc2)CC1` [Example 47, N-[4-[(1-Acetoimidoyl-4-piperidyl)oxy]phenyl]-N-[(7-amidino-2-naphthyl)methyl]-2,6-difluorobenzamide dihydrochloride], the figures for the IC (2-fold clotting time) (at bovine thrombin; in assay [1] (setting [3])) were more than 100 µM and 0.13 µM, respectively.

For the compound `CCOC(=O)NS(=O)(=O)N(Cc1ccc2ccc(C(=N)N)cc2c1)c1ccc(OC2CCN(C(C)=N)CC2)cc1` [Example 63, Ethyl N-[N-[4-[(1-acetoimidoyl-4-piperidyl)oxy]phenyl]-N-[7-amidino-2-naphthyl)methyl]sulfamoyl]carbamate dihydrochloride], the values for the IC (2-fold clotting time) (on bovine thrombin; in assay [1] (setting [3])) were more than 100 µM and 0.04 µM, respectively.

Turning to `CC(=N)N1CCC(Oc2ccc(N(Cc3ccc4ccc(C(=N)N)cc4c3)S(=O)(=O)c3ccc(C(=O)O)cc3)cc2)CC1` [Example 74, 4-[N-[4-[(1-Acetoimidoyl-4-piperidyl)oxy]phenyl]-N-[(7-amidino-2-naphthyl)methyl]sulfamoyl]benzoic acid dihydrochloride], the IC (2-fold clotting time) at bovine thrombin is more than 100 µM; in assay [1] (setting [3]) it was 0.09 µM.

A word on the IC50: it is the concentration that gives 50% inhibition. Low readings indicate greater potency, high ones weaker potency. In the case of `CNS(=O)(=O)N(Cc1ccc2ccc(C(=N)N)cc2c1)c1ccc(OC2CCN(C(C)=N)CC2)cc1` [Example 79, N-[4-[(1-Acetoimidoyl-4-piperidyl)oxy]phenyl]-N-[(7-amidino-2-naphthyl)methyl]-N'-methylsulfamide dihydrochloride], the IC (2-fold clotting time) on bovine thrombin was more than 100 µM; in assay [1], 0.05 µM. For the same compound, half-maximal inhibition in assay [2] (IC50) required 0.091 µM.

Turning to `CCOC(=O)N(CC(=O)O)S(=O)(=O)N(Cc1ccc2ccc(C(=N)N)cc2c1)c1ccc(OC2CCN(C(C)=N)CC2)cc1` [Example 86, N-[N-[4-[(1-Acetoimidoyl-4-piperidyl)oxy]phenyl]-N-[(7-amidino-2-naphthyl)methyl]sulfamoyl]-N-ethoxycarbonylglycine dihydrochloride], the IC (2-fold clotting time) at bovine thrombin was more than 100 µM; in assay [1] (setting [3]), 0.04 µM.

On to `CCOC(=O)CNS(=O)(=O)N(Cc1ccc2ccc(C(=N)N)cc2c1)c1ccc(OC2CCN(C(C)=N)CC2)cc1` [Example 88, Ethyl N-[N-[4-[(1-acetoimidoyl-4-piperidyl)oxy]phenyl]-N-[(7-amidino-2-naphthyl)methyl]sulfamoyl]glycinate dihydrochloride], for which the IC (2-fold clotting time) on bovine thrombin is more than 100 µM; in assay [1] it was 0.04 µM. In assay [2], this compound returned a concentration for half-maximal inhibition (IC50) of 0.047 µM.
